Measured values taken from patent EP3426036B1, “CROP ENHANCEMENT” (priority 2016, dated 2017).

Assays:
Format in all cases: in vivo
[1] = system: spring wheat (Triticum aestivum L.) of the variety Taifun; experiment: Whole plant transpiration analysis
Method: For whole plant transpiration analysis, spring wheat (Triticum aestivum L.) of the variety Taifun was grown under pest free conditions in 1.2 L growth columns filled with a field soil (sandy loam). Plants were daily watered to a target soil water content of 0.25 g H2O g^-1 dry soil. Plant growth and transpiration analysis was in growth chambers at 25/18 °C (day/night), 60 % relative humidity and a light intensity of 600 µmol m^-2 s^-1 at 14 hours of photoperiod. Transpiration was measured by monitoring the weight of the plant-pot-system with an automated weighing system. Application of compound I formulated as EC 100 at 75 g ha^-1 was done with a track sprayer at 200 L ha^-1 when plants were at BBCH 23. Transpiration was monitored at optimal watering for seven days after application, afterwards watering was stopped. The experimental layout was a randomized complete block design with nine replications per treatment; one experimental unit was two plants per pot. The transpiration before treatment was used as covariant for statistical analysis (ANOVA, Agstat 1.6 / ACSAP 4.29).

Durum wheat = experiment: Crop enhancement effect on wheat under drought conditions in the field (Example 1c); conditions: for Protein content / Grain Yield / TGW / No. of grains per ear: 75.0 g a.i/ha at BBCH GS 39; for Grain Yield / TGW: adjusted to 10% standard moisture; for No. of grains per ear: average of 10 ears per plot
Method: Durum wheat (plot size 24m^2) was treated with a single application at BBCH GS 39 (flag leaf stage) with the compound of formula I at a rate of 75.0 g a.i/ha. The plants were split into non-irrigated (only rainfed) and irrigated with 50% of evapotranspiration compensation. Untreated check plants were also included in both water supply conditions. These water supply conditions were maintained during the reproductive stages of plant growth (BBCH 55-73). The trial was carried out with six replicates.
At the end of the trial, a 12m^2 plot was harvested from each of four replicates for each water supply condition. […]
In addition to the above factors, the Normalised Difference Vegetation Index (NDVI) was also assessed. This is an estimate of the photosynthetically absorbed radiation over the crop surfaces and allows an estimate of the Leaf Area Index in order to track plant growth and vigour. The NDVI was measured several times during the trial with two handheld crop devices with active light source optical sensors: GreenSeeker HCS-100 (7 measurements) and RapidSCAN CS-45 (5 measurements).

Soybean plants = experiment: Crop enhancement effect on soybean under drought conditions, then optimal conditions (Example 2b); conditions: for Dry weight of pods: 21 days drought then 25 days optimal conditions
Method: Soybean plants were grown in pots. The plants were treated at R1 (33 days after sewing) or three days before R3 (40 days after sewing) with the compound of formula I at 0.75 l/ha. An untreated control plant was also included. After treatment, the plants were subjected to drought conditions for 21 days before being allowed to grow under optimal conditions for a further 25 days. Eight replicates of the control and each treatment were harvested for analysis of yield and chlorophyll content. […]

[2] = 0.75 l/ha @ R1, 3 days after application
[3] = 0.75 l/ha @ R1, 7 days after application
[4] = 0.75 l/ha @ R1, 10 days after application
[5] = 0.75 l/ha @ R1, 14 days after application
[6] = 0.75 l/ha @ R1, 21 days after application
[7] = 0.75 l/ha @ R1, 24 days after application
[8] = 0.75 l/ha @ R1, 28 days after application
[9] = 0.75 l/ha @ R1, 31 days after application
[10] = 0.75 l/ha @ R1, 36 days after application
[11] = 0.75 l/ha @ R1, 41 days after application
[12] = 0.75 l/ha @ R1, 43 days after application
[13] = 0.75 l/ha @ R1, -1 days after application
[14] = 0.75 l/ha @ R3 - 3 days, 0 days after application
[15] = 0.75 l/ha @ R3 - 3 days, 3 days after application
[16] = 0.75 l/ha @ R3 - 3 days, 7 days after application
[17] = 0.75 l/ha @ R3 - 3 days, 14 days after application
[18] = 0.75 l/ha @ R3 - 3 days, 17 days after application
[19] = 0.75 l/ha @ R3 - 3 days, 21 days after application
[20] = 0.75 l/ha @ R3 - 3 days, 24 days after application
[21] = 0.75 l/ha @ R3 - 3 days, 29 days after application
[22] = 0.75 l/ha @ R3 - 3 days, 34 days after application
[23] = 0.75 l/ha @ R3 - 3 days, 36 days after application
[24] = 0.75 l/ha @ R3 - 3 days, -3 days after application
[25] = 0.75 l/ha @ R3 - 3 days, -7 days after application

SMILES: Cn1cc(C(=O)Nc2cccc3c2C2CCC3C2=C(Cl)Cl)c(C(F)F)n1 (stereo not drawn) [Compound I, benzovindiflupyr]
- impact on biomass accumulation ([1]; EC 100 at 75 g ha^-1): no negative impact
- transpiration decrease compared to untreated control plants ([1]; EC 100 at 75 g ha^-1, BBCH 23, within one day, constant soil water content): about 8%
- shoot dry weight ([1]; EC 100 at 75 g ha^-1, end of the experiment, control plants same value): 6.3 ± 0.4 g plant^-1
- transpiration rate during soil drying compared to untreated control plants ([1]; EC 100 at 75 g ha^-1, irrigation withheld eight days after application): transiently higher transpiration rate
- duration of transpiration decrease ([1]; EC 100 at 75 g ha^-1, optimal watering): consistent for at least seven days
- Protein content (Durum wheat; 50% ET compensation): 15.45%
- Grain Yield (Durum wheat; 50% ET compensation): 60.60 dT/Ha
- TGW (Durum wheat; 50% ET compensation): 45.78 g
- No. of grains per ear (Durum wheat; 50% ET compensation): 42.08
- Normalised Difference Vegetation Index (NDVI) (Durum wheat; GreenSeeker HCS-100, BBCH 69(1), 50% ET compensation): 0.820
- Normalised Difference Vegetation Index (NDVI) (Durum wheat; GreenSeeker HCS-100, BBCH 69(1), non-irrigated): 0.788
- Normalised Difference Vegetation Index (NDVI) (Durum wheat; GreenSeeker HCS-100, BBCH 69(2), 50% ET compensation): 0.787
- Normalised Difference Vegetation Index (NDVI) (Durum wheat; GreenSeeker HCS-100, BBCH 69(2), non-irrigated): 0.747
- Normalised Difference Vegetation Index (NDVI) (Durum wheat; GreenSeeker HCS-100, BBCH 73, 50% ET compensation): 0.750
- Normalised Difference Vegetation Index (NDVI) (Durum wheat; GreenSeeker HCS-100, BBCH 73, non-irrigated): 0.672
- Normalised Difference Vegetation Index (NDVI) (Durum wheat; GreenSeeker HCS-100, BBCH 75-83, 50% ET compensation): 0.705
- Normalised Difference Vegetation Index (NDVI) (Durum wheat; GreenSeeker HCS-100, BBCH 75-83, non-irrigated): 0.557
- Normalised Difference Vegetation Index (NDVI) (Durum wheat; GreenSeeker HCS-100, BBCH 83-85, 50% ET compensation): 0.673
- Normalised Difference Vegetation Index (NDVI) (Durum wheat; GreenSeeker HCS-100, BBCH 83-85, non-irrigated): 0.468
- Normalised Difference Vegetation Index (NDVI) (Durum wheat; GreenSeeker HCS-100, BBCH 85, 50% ET compensation): 0.572
- Normalised Difference Vegetation Index (NDVI) (Durum wheat; GreenSeeker HCS-100, BBCH 85, non-irrigated): 0.375
- Normalised Difference Vegetation Index (NDVI) (Durum wheat; GreenSeeker HCS-100, BBCH 87, 50% ET compensation): 0.464
- Normalised Difference Vegetation Index (NDVI) (Durum wheat; GreenSeeker HCS-100, BBCH 87, non-irrigated): 0.185
- Normalised Difference Vegetation Index (NDVI) (Durum wheat; RapidSCAN CS-45, BBCH 69, 50% ET compensation): 0.663
- Normalised Difference Vegetation Index (NDVI) (Durum wheat; RapidSCAN CS-45, BBCH 69, non-irrigated): 0.592
- Normalised Difference Vegetation Index (NDVI) (Durum wheat; RapidSCAN CS-45, BBCH 73, 50% ET compensation): 0.657
- Normalised Difference Vegetation Index (NDVI) (Durum wheat; RapidSCAN CS-45, BBCH 73, non-irrigated): 0.625
- Normalised Difference Vegetation Index (NDVI) (Durum wheat; RapidSCAN CS-45, BBCH 83-85, 50% ET compensation): 0.572
- Normalised Difference Vegetation Index (NDVI) (Durum wheat; RapidSCAN CS-45, BBCH 83-85, non-irrigated): 0.393
- Normalised Difference Vegetation Index (NDVI) (Durum wheat; RapidSCAN CS-45, BBCH 85, 50% ET compensation): 0.538
- Normalised Difference Vegetation Index (NDVI) (Durum wheat; RapidSCAN CS-45, BBCH 85, non-irrigated): 0.320
- Normalised Difference Vegetation Index (NDVI) (Durum wheat; RapidSCAN CS-45, BBCH 87, 50% ET compensation): 0.204
- Normalised Difference Vegetation Index (NDVI) (Durum wheat; RapidSCAN CS-45, BBCH 87, non-irrigated): 0.083
- Protein content (Durum wheat; non-irrigated): 12.68%
- Grain Yield (Durum wheat; non-irrigated): 57.73 dT/Ha
- TGW (Durum wheat; non-irrigated): 51.16 g
- No. of grains per ear (Durum wheat; non-irrigated): 37.88
- Average plant colour (increase/decrease (%) compared to negative control treatment) (Soybean plants; [2]): 1.3%
- Digital biomass (increase/decrease (%) compared to negative control treatment) (Soybean plants; [2]): 2.6%
- Average plant colour (increase/decrease (%) compared to negative control treatment) (Soybean plants; [3]): 0.4%
- Digital biomass (increase/decrease (%) compared to negative control treatment) (Soybean plants; [3]): 0.4%
- Average plant colour (increase/decrease (%) compared to negative control treatment) (Soybean plants; [4]): -0.4%
- Digital biomass (increase/decrease (%) compared to negative control treatment) (Soybean plants; [4]): 1.9%
- Average plant colour (increase/decrease (%) compared to negative control treatment) (Soybean plants; [5]): -0.6%
- Digital biomass (increase/decrease (%) compared to negative control treatment) (Soybean plants; [5]): 2.4%
- Average plant colour (increase/decrease (%) compared to negative control treatment) (Soybean plants; [6]): -0.3%
- Digital biomass (increase/decrease (%) compared to negative control treatment) (Soybean plants; [6]): -1.5%
- Dry weight of pods (Soybean plants; 0.75 l/ha @ R1): 106.3 % of control
- Average plant colour (increase/decrease (%) compared to negative control treatment) (Soybean plants; [7]): -0.3%
- Digital biomass (increase/decrease (%) compared to negative control treatment) (Soybean plants; [7]): -1.1%
- Average plant colour (increase/decrease (%) compared to negative control treatment) (Soybean plants; [8]): -1.6%
- Digital biomass (increase/decrease (%) compared to negative control treatment) (Soybean plants; [8]): 1.2%
- Average plant colour (increase/decrease (%) compared to negative control treatment) (Soybean plants; [9]): -3.0%
- Digital biomass (increase/decrease (%) compared to negative control treatment) (Soybean plants; [9]): -3.7%
- Average plant colour (increase/decrease (%) compared to negative control treatment) (Soybean plants; [10]): -0.5%
- Digital biomass (increase/decrease (%) compared to negative control treatment) (Soybean plants; [10]): -6.3%
- Average plant colour (increase/decrease (%) compared to negative control treatment) (Soybean plants; [11]): -1.4%
- Digital biomass (increase/decrease (%) compared to negative control treatment) (Soybean plants; [11]): -9.2%
- Average plant colour (increase/decrease (%) compared to negative control treatment) (Soybean plants; [12]): -2.0%
- Digital biomass (increase/decrease (%) compared to negative control treatment) (Soybean plants; [12]): -6.9%
- Average plant colour (increase/decrease (%) compared to negative control treatment) (Soybean plants; [13]): 0.3%
- Digital biomass (increase/decrease (%) compared to negative control treatment) (Soybean plants; [13]): 1.5%
- Average plant colour (increase/decrease (%) compared to negative control treatment) (Soybean plants; [14]): 0.4%
- Digital biomass (increase/decrease (%) compared to negative control treatment) (Soybean plants; [14]): 3.6%
- Average plant colour (increase/decrease (%) compared to negative control treatment) (Soybean plants; [15]): 1.3%
- Digital biomass (increase/decrease (%) compared to negative control treatment) (Soybean plants; [15]): 4.3%
- Average plant colour (increase/decrease (%) compared to negative control treatment) (Soybean plants; [16]): 0.4%
- Digital biomass (increase/decrease (%) compared to negative control treatment) (Soybean plants; [16]): 2.7%
- Average plant colour (increase/decrease (%) compared to negative control treatment) (Soybean plants; [17]): -0.2%
- Digital biomass (increase/decrease (%) compared to negative control treatment) (Soybean plants; [17]): 1.5%
- Average plant colour (increase/decrease (%) compared to negative control treatment) (Soybean plants; [18]): 1.4%
- Digital biomass (increase/decrease (%) compared to negative control treatment) (Soybean plants; [18]): 4.4%
- Average plant colour (increase/decrease (%) compared to negative control treatment) (Soybean plants; [19]): 0.2%
- Digital biomass (increase/decrease (%) compared to negative control treatment) (Soybean plants; [19]): 4.4%
- Dry weight of pods (Soybean plants; 0.75 l/ha @ R3 - 3 days): 105.8 % of control
- Average plant colour (increase/decrease (%) compared to negative control treatment) (Soybean plants; [20]): 1.3%
- Digital biomass (increase/decrease (%) compared to negative control treatment) (Soybean plants; [20]): -2.4%
- Average plant colour (increase/decrease (%) compared to negative control treatment) (Soybean plants; [21]): -0.5%
- Digital biomass (increase/decrease (%) compared to negative control treatment) (Soybean plants; [21]): -0.9%
- Average plant colour (increase/decrease (%) compared to negative control treatment) (Soybean plants; [22]): -2.3%
- Digital biomass (increase/decrease (%) compared to negative control treatment) (Soybean plants; [22]): -3.3%
- Average plant colour (increase/decrease (%) compared to negative control treatment) (Soybean plants; [23]): -3.9%
- Digital biomass (increase/decrease (%) compared to negative control treatment) (Soybean plants; [23]): 1.6%
- Average plant colour (increase/decrease (%) compared to negative control treatment) (Soybean plants; [24]): 0.4%
- Digital biomass (increase/decrease (%) compared to negative control treatment) (Soybean plants; [24]): 2.2%
- Average plant colour (increase/decrease (%) compared to negative control treatment) (Soybean plants; [25]): 0.1%
- Digital biomass (increase/decrease (%) compared to negative control treatment) (Soybean plants; [25]): -1.2%
